Data from patent publication US6806269B1, “2-Amino-benzoxazinones for the treatment of herpes simplex virus” (G. D. Searle & Cop, priority 1999, dated 2004).
pEC50, pIC50: −log10 of the molar value.

Key:
[1] = molecular target: T1, HSV-1 protease (assemblin) (Human herpesvirus 1, UniProt P10210); assay: Enzymatic assay for HSV-1 protease (assemblin) inhibition (FP assay / HPLC assay); type: biochemical; details: recombinant HSV-1 protease; 30 minute pre-incubation at room temperature; FP or HPLC format not stated; read-out: ENZYME IC50
T1 construct: encoding residues 1-288 of HSV-1 UL26 open reading frame and 32 heterologous amino acid; 6xHis (N); made in house
Procedure: Enzymatic Assay for HSV-1 Protease (Assemblin) Inhibition
Assemblin protease activity was determined using fluorescence polarization (FP). The fluorescent substrate was biotin-gamma-aminobutyrate -[…]-DTAF, based on the HSV-1release cleavage site. […] A change in molecular size of fluorescent substrate molecule, which was increased using avidin as a reaction stop reagent, allowed cleavage to be measured by FP. Potential protease inhibitors were dissolved in DMF and then diluted 5-fold in assay buffer. […] The enzyme was diluted to 21.3 ug/mL in assay buffer (1M NaCitrate, 50 mM NaPhosphate, pH 7.4, 100mM NaCl, 20% glycerol, 2 mM TECP) and 48.5 uL were added to each well. Following a 30 minute incubation at room temperature, 10 uL of 62.5 ug/mL substrate were added. After about 90 minute incubation at room temperature, 50 uL of 2 mg/mL avidin in phosphate buffer (50 mM Naphosphate, 100 mM NaCl, pH 7.4) were added to each well. The plates were read by a fluorescence polarization plate reader. Inhibitor potency was determined by comparison with incubations lacking inhibitor.
Assays were performed with the peptide substrate H-His-Thr-Tyr-Leu-Gln-Ala-Ser-Glu-Lys-Phe-Lys-Met-Trp-Gly-NH2 (Bachem). This substrate is a HSV-1-amide UL26 Open Reading Frame (242-255) and is derived from the release site of HSV-1 protease. HSV-1protease cleaves between alanine and serine. The product […] was quantified on HPLC using fluorescence detection of tryptophan residue. Enzyme was diluted to 4.3 ug/mL in assay buffer (1 M NaCitrate, 50 mM NaPhosphate, pH 7.3, 100 mM NaCl, 20% glycerol, 2 mM TCEP) and 48.5 uL were added to the tubes. Potential protease inhibitors were dissolved in DMF and then diluted 10-fold in assay buffer. 6.5 uL of inhibitor solution were added to each tube. Following a 30-minute incubation at room temperature, 10 uL of substrate in phosphate buffer (50 mM Naphosphate, 100 mM NaCl, pH 7.4) were added to all tubes. The final concentration of the substrate in the reaction mixtures was 10 uM. After a 15-minute incubation at room temperature, assays were quenched using 50 uL of 50% TCA. Inhibitor potency was determined by comparison with incubations lacking inhibitor, which under these conditions gave about 20% cleavage of substrate.
Recombinant HSV-1 Protease
HSV-1 protease was purified from baculovirus expressing a DNA construction encoding residues 1-288 of HSV-1 UL26 open reading frame and 32 heterologous amino acid. The construction also encoded six additional histidine residues at the amino terminus of the protease. These additional histidine residues provided an affinity ligand by which the protein was purified using Ni-NTA agarose gel (Qiagen). The purified protease was stored in stock solution (20 mM HEPES buffer, pH 8.5, containing 20% (v/v) glycerol). This stock was diluted with assay buffer to adequate concentration of enzymatic assay.
A specific substrate was synthesized based on the cleavage specificity of HSV-1 protease at the “release site” of the assembly protein (DiIanni, C. L., et al., J. Biol. Chem. 268, 2048, (1993)). The assembly protein release site has the sequence, HTYLQA*SEKFKMWG. The substrate used was biotin-gamma -aminobutyrate-HTYLQA*SERFRIK-DTAF which was prepared by standard peptide synthetic methods such as that described in Bodansky and Bodansky, “The Practice of Peptide Synthesis” (1984), and was stored as a stock solution at 2.5 mg/mL in DMF. This was diluted to 62.5 ug/mL with phosphate buffer (50 mM Naphosphate, […], pH 7.4) just before use.
The substrate was HSV-1-amide UL 26 Open Reading Frame (242-255), obtained from Bachem (Product No. M-2160).
An assay buffer (1 M NaCitrate, 50 mM NaPhosphate, pH 7.4, 100 mM NaCl, 20% glycerol, 2 mM TCEP) was used to dilute stock solutions of enzyme and inhibitors.

HSV-1 = assay: Antiviral assay: plaque reduction assay, HSV-1 in vero cells; type: cell-based, HSV-1 (vero cells, African green monkey kidney cell); details: Human alphaherpesvirus 1, Vero, 72 h, read-out: ANTIVIRUS EC50
Excerpt: These complimentary assays tested the ability of a compound to inhibit the production of new virus and the toxicity of the compound to the host cells. It was important that both assays be performed simultaneously in order to compare the results directly since toxicity may indirectly reduce viral replication.
The antiviral assay was estimated by plaque reduction assay performed by following methods. 1×10^5 of vero cells (African green monkey kidney cell) in 48-well plates were over-night cultured and the medium of this culture was replaced with 200 μl of 2% FBS DMEM containing 2× the desired final cordon of test compounds or no compound as control. The cultures were added 50 μl of 2% FBS DMEM containing with about 50 plaque forming units of HSV-1and next 250 μl of 2% FBS DMEM containing 1% methylcellulose. These infected cultures were incubated at 37° C., 5% CO2 for 3 days until plaques was visible. The cells were fixed and stained simultaneously with 0.025% crystalviolet in 5% formalin solution and plaque were counted. The concentration of test compound which conferred 50% inhibition of plaque formation compared to no compound control was interpolated from the observed data and defined as IC50.

[2] = molecular target: T2, Human leukocyte elastase (HLE) (Homo sapiens, UniProt P08246); assay: Human leukocyte elastase assay; type: biochemical; details: 50 μM compound; 30 minutes pre-incubation
T2 construct: purchased CALBIOCHEM
T2 sequence (P08246 30-267): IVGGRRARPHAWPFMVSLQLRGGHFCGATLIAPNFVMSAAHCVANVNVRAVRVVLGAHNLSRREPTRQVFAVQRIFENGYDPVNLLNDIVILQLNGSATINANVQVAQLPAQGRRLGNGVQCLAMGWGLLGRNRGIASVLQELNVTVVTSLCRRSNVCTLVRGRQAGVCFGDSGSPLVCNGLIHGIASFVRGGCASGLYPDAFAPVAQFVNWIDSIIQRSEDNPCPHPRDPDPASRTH
Procedure: Human Leukocyte Elastase Assay
Human leukocyte elastase (HLE) (CALBIOCHEM) was dissolved in saline at 1 mg/ml and further diluted 1/10 in assay buffer (0.2 M Tris, pH 8.0) before use.
0.75 μl of test compound in DMF (or DMF alone), 50 μl of assay buffer and 50 μl of enzyme were added to 96 well plate, mixed and pre-incubated for 30 minutes at ambient temperature. Reaction was initiated by addition of 50 μl of 2.5 mM methoxysuccinyl-Ala-Ala-Pro-Val-p-nitroanilide (Sigma; 25 mM in DMSO diluted 1/10 in assay buffer before use). The increase in absorbance at 405 nm was monitored for 3 min. with BIO-RAD model 3550 microplate reader.

[3] = molecular target: T3, Bovine pancreas α-chymotripsin (Bos taurus, UniProt P00766); assay: Chymotripsin assay; type: biochemical; details: 50 μM compound; 30 minutes pre-incubation; read-out: INHIBITION AT 50 μM CHYMOTRYPSIN (%)
T3 construct: purchased Sigma type II; host or cells: bovine pancreas
Procedure: The chymotripsin assay was modified from the method of Delmar, et al. (Anal. Biochem. 99, 316-320 (1979)). Bovine pancreas α-chymotripsin(type II, Sigma) was dissolved in 0.001 N HCl at 1 mg/ml and further diluted 1/1000 in assay buffer (0.1 M Tris, pH 7.8 containing 0.1 M CaCl2) before use. 0.75 μl of test compound in DMF (or DMF alone), 50 μl of assay buffer and 50 μl of enzyme were added to 96 wells plates, mixed and pre-incubated for 30 minutes at ambient temperature. Reaction was initiated by addition of 50 μl of 0.2 mM N-succinyl-Ala-Ala-Pro-Phe-p-nitroanilide (Sigma; 2 mM in DMSO diluted 1/10 in assay buffer before use). The increase in absorbance at 405 nm was monitored for 3 minutes with BIO-RAD model 3550 microplate-reader.

T1 sequence (P10210 1-288): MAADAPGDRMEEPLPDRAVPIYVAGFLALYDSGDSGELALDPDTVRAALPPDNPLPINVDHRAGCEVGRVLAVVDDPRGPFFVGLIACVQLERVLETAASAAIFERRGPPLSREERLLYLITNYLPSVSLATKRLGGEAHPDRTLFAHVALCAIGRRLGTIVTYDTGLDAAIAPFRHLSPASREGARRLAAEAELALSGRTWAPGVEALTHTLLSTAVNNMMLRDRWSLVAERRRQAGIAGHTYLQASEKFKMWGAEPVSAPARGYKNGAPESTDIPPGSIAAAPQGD

SMILES	pIC50 [1]	pEC50 (HSV-1)	inhibition at 50 µM [2]	inhibition at 50 µM [3]
Cc1c(NC(=O)c2c(F)cc(F)cc2F)ccc2nc(N(C(C)C)C(C)C)oc(=O)c12 [Compound 12, 6-[(2,4,6-Trifluorobenzoyl)amino]-5-methyl-2(diisopropylamino)-4H-3,1-benzoxazine-4-one]	5.20	5.17	13.4%	22.4%
Cc1c(NC(=O)OC(C)(C)C)ccc2nc(N(CCC#N)C3CC3)oc(=O)c12 [Compound 13, 6-[[(1,1-Dimethylethoxy)carbonyl]amino]-5-methyl-2-[(2-cyanoethyl)-(cyclopropyl)amino]-4H-3,1-benzoxazin-4-one]	5.41	5.12	0%	2.2%
Cc1c(NC(=O)OC(C)(C)C)ccc2nc(N3CCN(C(=O)c4ccco4)CC3)oc(=O)c12 [Compound 14]	5.70	5.80	46.3%	0%
Cc1c(NC(=O)OC(C)(C)C)ccc2nc(N3CCN(S(=O)(=O)c4ccccc4)CC3)oc(=O)c12 [Compound 15, 6-[[(1,1-Dimethylethoxy)carbonyl]amino]-5-methyl-2-[(4-benzenesulfonyl)-piperazinyl]-4H-3,1-benzoxazin-4-one]	5.77	5.55	0%	0%
CC(=O)N1CCN(c2nc3ccc(NC(=O)OC(C)(C)C)c(C)c3c(=O)o2)CC1 [Compound 16, 6-[[(1,1-Dimethylethoxy)carbonyl]amino]-5-methyl-2-[4-(1-acetylpiperadinyl)]-4H-3,1-benzoxazin-4-one]	5.64	5.44	1.4%	0%
Cc1c(NC(=O)OC(C)(C)C)ccc2nc(N3CCN(C(=O)c4cccs4)CC3)oc(=O)c12 [Compound 17, 6-[[(1,1-Dimethylethoxy)carbonyl]amino]-5-methyl-2-[(4-thenoyl)piperzinyl]-4H-3,1-benzoxazin-4-one]	5.38	5.39	0%	0%
Cc1c(NC(=O)OC(C)(C)C)ccc2nc(N(C)Cc3ccccn3)oc(=O)c12 [Compound 18, 6-[[(1-Dimethylethoxy)carbonyl]amino]-5-methyl-2-[methyl(2-pyridylmethyl)-amino]-4H-3,1-benzoxazin-4-one]	5.82	4.82	28.7%	0%
